Test results as given in patent US7645735B2, “Anti-angiogenic peptides for treating or preventing endometriosis” (Children's Medical Center Corporation, priority 2003, dated 2010).
One block for each substance: values may come before it. No end group written: not given here.

What was measured:
[1] = system: human pancreatic tumor cells BxPC-3; assay: BxPC-3 human pancreatic tumor model in SCID mice; format: in vivo; settings: human endostatin peptides s.c. twice a day at 7 mg/kg/d, final measurement at 28 days, n=3
Protocol: These peptides were initially tested for anti-tumor activity employing the human pancreatic tumor cells BxPC-3 cells, which were implanted in the s.c. dorsa of SCID mice. For systemic treatment, human endostatin peptides, P1-P8, were administered subcutaneously (s.c.) twice a day at 7 mg/kg/d due to the high clearance rate from the mouse circulation. Full-length Fc-Endostatin, hFcES was administered subcutaneously only once per day at a dose of 20 mg/kg/d. PBS was used as a control.
(§1) BxPC-3 and LLC cells were grown in cell culture as described above. […] Mice were shaved and the dorsal skin was cleaned with ethanol before tumor cell injection. A suspension of 5×10^6 tumor cells in 0.1 ml RPMI-1640 (for BxPC-3) or DMEM (for LLC) was injected subcutaneously (s.c.) into the dorsa of mice at the proximal midline. BxPC-3 cells were implanted in SCID mice and LLC in C57B1/6J mice.
(§2) The mice were weighed and tumors were measured every 3-5 days in two diameters with a dial-caliper. Volumes were determined using the formula a2×b×0.52 (where a is the shortest and b is the longest diameter). Data is represented as volume of treated tumor over control (T/C). At the completion of each experiment, the mice were euthanized with CO2 asphyxiation. Tumors were fixed in 10% buffered Formalin (Fisher Scientific, Fair Lawn, N.J.) and paraffin-embedded.
(§3) For treatment of tumor-bearing mice, tumor volumes were allowed to grow to approximately 100 mm^3, and mice were randomized. Treatment was performed by single bolus s.c. injections. Peptides were administered twice a day (every 12 hrs). Doses indicated for peptides were corrected for the purity of peptides (approximately 70%). For example, mice injected with 4 mg/kg/d peptide, were actually injected with 2.8 mg/kg/d after correction. The unpaired Student t-test was used for statistical analysis.

LLC = assay: Lewis lung carcinoma (LLC) tumor model in C57Bl/6J mice; format: in vivo, mouse; settings: for tumor volume: LLC, s.c. twice a day 2.8 mg/kg/day, n=5 (FIG. 7); for inhibited LLC (tumor inhibition): peptides s.c. twice a day at 2.8 mg/kg/d, C57B1/6J mice
Protocol: Control mice were treated with PBS. In these experiments, LLC cells were implanted into the s.c. dorsa of C57B1/6J mice, and systemically treated. Peptides (mP1, mP2, mP5, and mP6) were injected (s.c.) twice a day at a dose of 2.8 mg/kg/d, whereas endostatin and PBS were administered once a day at a dose of 20 mg/kg/d.
as §1
Animals with Lewis Lung carcinoma (600-800 mm^3 tumors) were euthanized, and the skin overlying the tumor was cleaned with Betadine and ethanol. Tumor tissue was excised under aseptic conditions. A suspension of tumor cells in 0.9% normal saline was made by passage of viable tumor tissue through a sieve and a series of sequentially smaller hypodermic needles of diameter 22- to 30-gauge. The final concentration was adjusted to 1×10^7 cells/ml, and the suspension was placed on ice. The injection of tumor cells was performed as described above.
as §2, §3

female C57BL/6 mice = assay: Estrus cycling by daily vaginal smears; format: in vivo, mouse; settings: larger experiment, 2.5 mg/kg
Excerpt: To investigate the effect of the angiogenesis inhibitors used above on estrus cycling, mice from the first two studies underwent daily vaginal smears in the middle of the endometriosis experiment. The stage of the estrus cycle was classified by evaluating the cells present at the cytological staining. Briefly, this was done as follows. In order to synchronize estrus cycling prior to surgery, mice were housed in groups of 5 for a week. After endometriosis surgery, with the intention to prevent the suspension of cycling, all mice were housed in individual cages. In the absence of a male, female mice housed in groups may become anestrus. Starting post surgical week two, estrus cycling was evaluated by cytological analysis of daily vaginal smears over one week's period. Exams were performed each day during the early morning hours. Autoclaved, wetted, blunt toothpicks were used to gently scrape the superficial cell layer of the animal's vagina. Cells were transferred to a drop of Evan's blue in 0.9% saline on a glass slide for staining, sealed under a glass cover slip and examined under a microscope (Carl Zeiss, Thornwood, N.Y.). Subsequently, each slide was analyzed under low magnification (×40 to ×100) by two independent investigators, who were masked for the form of treatment and previous data from every mouse.

[2] = system: human microvascular endothelial cells (HMVECs); assay: VEGF-induced migration of HMVECs, modified Boyden chamber; format: cell-based
Protocol: Endostatin peptides were tested for anti-endothelial cell migration activity. Inhibition of VEGF-induced migration of human microvascular endothelial cells (HMVECs) was determined using several doses of endostatin peptides (FIG. 5). Human peptides were used because the cells were of human origin and the migration response of the HMVECs was assayed using a modified Boyden chamber. VEGF (5 ng/ml) was used a chemotactic agent and cells were challenged with human endostatin (Entremed; EM-ES), human Fc-Endostatin (nFcES), human P1 (hP1), human P2 (hP2), human P6 (hP6), and human P1-H1/3A (hP1-H1/3A). Total migration per membrane was quantified from the capture images using Scion Image Software (National Institutes of Health) and the unpaired Student T test was used for statistical analysis. […] No significant differences in inhibition between these concentrations were observed. At higher and lower concentrations less or no inhibition was observed. At 500 ng/ml of hP1 no inhibition was observed. Thus, similar to full-length endostatin, there is a U-shaped response to hP1 inhibition of EC migration.
The motility response of HMVEC-d cells was assayed using a modified Boyden chamber. Cells were plated in T75-cm2 flasks at 0.5×10^6 cells per flask and allowed to grow for 48 h (˜70% confluent) prior to the migration assay. To facilitate cell adhesion, the upper membrane of a transwell ([…]; Costar) was coated with fibronectin ([…]; Becton Dickinson, Bedford, Mass.) for 1 h at 37° C. Coated membranes were rinsed with PBS and allowed to air dry immediately before use. Cells were detached by trypsinization, treated with trypsinization neutralization solution (Clonetics), and resuspended at a final concentration of 1×10^6 cells/ml in serum-free endothelial basal medium (EBM; Clonetics) containing 0.1% BSA. Cells (200,000 in 0.2 ml) were then treated with 0.2 ml of EBM/BSA containing endostatin or peptides at the indicated concentrations. Cells were incubated for 20 min. at 37° C. with occasional shaking. Cells (50,000 in 100 μl) were added to the upper chamber of the transwell. EBM or EBM supplemented with VEGF (5 ng/ml) was added to the lower chamber and cells were allowed to migrate toward the bottom chamber for 4 h in a humidified incubator containing 5% CO2. Transwell filters were rinsed once with PBS and fixed and stained using a Diff-Quik staining kit (Baxter) following the manufacturer's protocol. Non-migrated cells were removed from the upper chamber with a cotton swab. Stained filters were cut out of the chamber and mounted onto slides using Permount (Fisher). The number of migrated cells was measured using microscopy (three fields from each membrane were captured using a 40× objective), and images were captured with a CCD camera using SPOT software. Total migration per membrane was quantified from the captured images using Scion Image software (National Institutes of Health). All experiments were run in triplicate. The unpaired Student t-test was used for statistical analysis.

[3] = system: vessel density (CD31) of LLC tumors; assay: Vessel density (CD31 staining) of LLC tumor sections; format: in vivo, mouse; settings: peptides 2.8 mg/kg/d s.c. twice a day
Protocol: To determine the effect on angiogenesis after mP1 treatment, LLC tumors treated with mP1, mP2, and endostatin at equimolar concentration were analyzed for vessel density (CD31). […] In each case, peptides were administered twice a day s.c. and LLC tumor sections from day 13 were formalin-fixed paraffin-embedded and then stained with CD31 (PECAM). FIG. 2C show the determination of vessel density and the Y axis is expressed as %CD31/high power field (hpf).
Tumors were fixed in 10% buffered Formalin overnight at 4° C. The next day, tumors were washed three times in PBS and paraffin-embedded. Sections (5 μm) were permeabilized with 40 μg/ml proteinase K (Roche Diagnostics Corp.) in 0.2 M Tris-HCl buffer (pH 7.6) for 25 minutes at 37° C. and washed with PBS. PECAM (1:250) was incubated at 4° C. overnight. Stainings were amplified using tyramide signal amplification direct and indirect kits (NEN Life Science Products Inc., Boston, Mass.). Sections were photographed at 400× magnification using a NIKON TE300 microscope. Vessel density (average of three fields) was determined by IPLab software. The unpaired Student t-test was used for statistical analysis.

C57B1/6J mice = assay: Corpus luteum formation in ovaries; format: in vivo, mouse; settings: after 4 weeks of treatment, compared to control animals
Excerpt: The corpus luteum (CL) is the remnant of the graafian follicle after ovulation consisting mainly of connective tissue, granulosa and theca interna cells. The presence of Corpora lutea in an ovary is indicative of recent ovulation. We therefore examined the ovaries of mP-1 and vehicle treated mice for CL formation. After 4 weeks of treatment of C57B1/6J mice with induced endometriosis with mP-1, ovaries were removed, fixed in formalin and paraffin embedded. Ovaries from twelve, randomly chosen mice (three mice of both groups from the first two experiments) were sectioned (4-6 μm), and four consecutive sections were put on one slide. Every other slide was then stained with hematoxylin and eosin (H/E). The highest number of Corpora lutea per ovary on each slide was recorded, all numbers added and the mean number calculated.

Female SCID mice = settings: mouse, in vivo
Protocol: Female SCID mice were injected with human pancreatic tumor cells subcutaneously. When tumors reached a volume of approximately 100 mm^3 endostatin or placebo treatment was initiated and continued until the end of the study. After three days, females were mated.
Human BxPC-3 cells were grown in cells culture as described above. After washing with sterile PBS, cells were trypsinized and briefly re-suspended in RPMI 1640 medium containing 10% fetal calf serum (FCS) and 1% glutamine penicillin streptomycin (GPS) solution. After centrifuging, the cell concentration was adjusted to 50×10^6 cells/ml in additive-free RPMI 1640 medium and kept on ice. Female SCID mice were shaved on the dorsal side and the naked skin was cleaned with ethanol prior to injection. A suspension of 5×10^6 cells/ml in 100 μl was then injected subcutaneously into the dorsa of these mice at about one centimetre left of the midline.
Mice were weighed and tumors were measured every 7 days in two diameters using a dial-caliper. Tumor volumes were calculated using the formula a^2×b×0.52, while a being the shorter and b being the longer diameter. When tumors had reached a volume of approximately 100 mm^2 mice were divided into four groups.
During the first experiment, one group received endostatin (20 mg/kg; n=8) or vehicle (n=8) via subcutaneous osmotic pumps (Durect Corp., Cupertino, Calif.). Pumps were inserted via a small incision and placed into a subcutaneous pocket on the right lateral aspect of the animals' dorsa. The pumps were changed every week for a total of four weeks.
The other group received daily subcutaneous injections of endostatin (100 mg/kg, n=5) or vehicle (n=5) for the same period.
During a second study we repeated the experiment with endostatin in subcutaneous pumps. The other group in this series received the murine N-terminal fragment of endostatin (mP-1) at a dose of 2.5 mg/kg twice daily or PBS (n=5 each).
Three days after initiation of treatment female mice were added to a cage containing a male SCID mouse in a 1:1 ratio. All males had been housed separately three days prior to encountering the females and female bedding had been added to the male cages to enhance the males' libido.
For the following seven days every female was checked for a vaginal mucous plug as a sign of mating. These exams were performed during the early morning hours to optimize the results. Once a mucous plug had been noticed, mating was considered ‘successful’, and the female was not further examined in order to minimize iatrogenic stress.
Over the course of pregnancy the following parameters were assessed: ‘Mating Time’ describing the time between male encounter and the occurrence of a mucous plug; ‘Pregnancy Rate’, measured by ultrasound 15 days after the mucous plug was observed. The number of viable fetus was counted during this procedure; ‘Length of Pregnancy’, as measured from the time of successful mating to delivery; ‘Number of Total and Viable Litter’, counted on the day of birth; ‘Weight of Individual Pup’, by weighing the entire litter on the day of birth and calculating the mean weight.

Substance: GSEGPLKPGARIFSFDGKDVLRHPT (listed as Homo sapiens) [hP5]
inhibited BxPC-3 (tumor inhibition) [1]: 29%

Substance: HTHQDFQPVLHLVAL (listed as Mus musculus) [mP1-15]
tumor volume (LLC): inhibit tumor volume

Substance: ATAQDFQPVLHLVALNTPLSGGMRGIR [mP1-H1/3A]
arrest of the estrus cycle (female C57BL/6 mice): Neither mP-1, not the other two peptides, mP-6 and mP-1-H led to an arrest of the estrus cycle

Substance: HPAWPQKSVWHGSDPSGRRLMESY [mP6]
arrest of the estrus cycle (female C57BL/6 mice): Neither mP-1, not the other two peptides, mP-6 and mP-1-H led to an arrest of the estrus cycle

Substance: HSHRDFQPVLHLVALNSPLSGGMRG (listed as Homo sapiens) [hP1]
inhibited BxPC-3 (tumor inhibition) [1]: 39% | inhibition of EC migration ([2]; 500 ng/ml, VEGF 5 ng/ml): no inhibition | inhibition of EC migration ([2]; 100, 62.5, and 25 ng/ml, VEGF 5 ng/ml): best inhibition

Substance: HPTWPQKSVWHGSDPNGRRLTESY (listed as Homo sapiens) [hP6]
inhibition of EC migration ([2]; 200 and 100 ng/ml, VEGF 5 ng/ml): only inhibited at doses of 100 and 200 ng/ml | inhibition of EC migration ([2]; concentrations lower than 100 ng/ml): no inhibition

Substance: TFRAFLSSRLQDLYSIVRRADRAAV (listed as Homo sapiens) [hP3]
inhibited BxPC-3 (tumor inhibition) [1]: failed to inhibit tumor growth

Substance: HTHQDFQPVLHLVALNTPLS (listed as Mus musculus) [mP1-20]
tumor volume (LLC): inhibit tumor volume

Substance: MRGIRGA DFQAFQQARA VGLSGTFR (MRGIRGADFQAFQQARAVGLSGTFR; listed as Mus musculus) [mP2]
LLC tumor formation (LLC; higher concentration 14 mg/kg/d): could inhibit LLC tumor formation as well as mP1 at 2.8 mg/kg/d | inhibited LLC (tumor inhibition) (LLC): No or insignificant activity | reduction of vessel density (%CD31/hpf) [3]: no effect

Substance: GSQGQVQPGARIFSFDGRDVLRHPA (listed as Mus musculus) [mP5]
inhibited LLC (tumor inhibition) (LLC): No or insignificant activity

length of pregnancy (Female SCID mice): 20 days | litter size per delivery (Female SCID mice): 7.4±1.3 | mean weight of pups on the day of delivery (Female SCID mice): 1.29 g | pregnancy rate with live births (Female SCID mice): All mice receiving mP-1 became pregnant
Substance: HTHQDFQPVLHLVALNTPLSGGMRGIR [mP1]
arrest of the estrus cycle (female C57BL/6 mice): Neither mP-1, not the other two peptides, mP-6 and mP-1-H led to an arrest of the estrus cycle | mean number of Corpora lutea in ovaries (C57B1/6J mice): did not reduce the mean number of Corpora lutea | effect on the offspring (Female SCID mice): did not see any negative effect on the offspring
